From US6551591B1, “Antibiotics from microbispora” (priority 2001, dated 2003) come the findings set out here.

Converted amounts (≈) assume the structure as drawn. Like-named read-outs stand apart in the source and are kept apart here.

Experiment [1] relates to MSSA (methicillin sensitive Staphylococcus aureus) strains. The experiment is described as follows: MIC50/MIC90 against a collection of genotypically characterized S. aureus isolates. The experiment is classed as cell-based. The method, then:
(§1) The antibacterial activity of MF-BA-1768α1 and MF-BA-1768β1 were determined against a spectrum of bacterial strains using a broth microdilution assay performed as recommended by the NCCLS (NCCLS Document M7-A4, Vol 17 No.2). With the exception of Streptococci spp. and H. influenzae, the assay was performed in Cation Adjusted Mueller-Hinton Broth (CAMHB). For the Streptococci spp., CAMHB+2-5% Laked Horse Blood (REMEL) was used. For H. influenzae, Haemophilus Test Medium (REMEL) containing 2% Fildes Enrichment was used. The final bacterial inoculum was 5×10^5 CFU/ml in a final assay volume of 100 μl. Microtiter plates containing the test samples and the respective bacterial inoculum were incubated for 24 hours at 35° C. with the exception of E. coli plates, which were incubated for 20 hours at 35° C. Upon completion of incubation, the plates were read using a microtiter plate reader (Molecular Devices) at 650 nm as well as by visual observation using a microtiter plate reading mirror. […]
(§2) The antibacterial activity of MF-BA-1768β1 was further evaluated side-by-side with 9 reference antibiotics against a collection of genotypically well-characterized isolates of Staphylococcus aureus. These included 64 MRSA (methicillin resistance Staphylococcus aureus) strains and 19 MSSA (methicillin sensitive Staphylococcus aureus) strains representing 57 staphylococcal protein A genotypes and 22 coagulase A genotypes. The most common protein A genotypes found in the USA were represented by more than one isolate.

Experiment [2] deals with MRSA (methicillin resistance Staphylococcus aureus) strains. The description is as above. It is filed as cell-based. As to the method:
as §1, §2

[3] abbreviates: Staphylococcus aureus, MSSA (19 strains), read-out: MIC50.
Where [4] appears, read: Staphylococcus aureus, MSSA (19 strains), read-out: MIC90.
Where [5] appears, read: Staphylococcus aureus, MRSA (64 strains), read-out: MIC50.
Where [6] appears, read: Staphylococcus aureus, MRSA (64 strains), read-out: MIC90.

As usually defined, the MIC50 is the lowest concentration that inhibits either 50% of growth or 50% of the strains tested, depending on the study. One may read the MIC90 as the lowest concentration that inhibits either 90% of growth or 90% of the strains tested, depending on the study.

On to `CO/N=C(\C(=O)N[C@@H]1C(=O)N2C(C(=O)O)=C(COC(C)=O)CS[C@H]12)c1csc(N)n1` [Cefotaxime], for which the MIC50 in experiment [1] (setting [3]) was found to be 2 µg/mL (≈ 4.39 µM); in experiment [2] (setting [5]), 512 µg/mL (≈ 1120 µM). Besides, the MIC90 is 256 µg/mL (≈ 562 µM) in experiment [1] (setting [4]) and greater than 512 µg/mL in experiment [2] (setting [6]).

Turning to `C[C@@H](O)[C@H]1C(=O)N2C(C(=O)O)=C(SCCN=CN)C[C@H]12` [Imipenem], the values for the MIC50 in experiment [1] (setting [3]) and in experiment [2] (setting [5]) were no more than 0.5 µg/mL and 8 µg/mL (≈ 26.7 µM), respectively. Besides, the MIC90 in experiment [1] (setting [4]) was 4 µg/mL (≈ 13.4 µM); in experiment [2] (setting [6]), 128 µg/mL (≈ 428 µM).

As for `CCOc1ccc2ccccc2c1C(=O)N[C@@H]1C(=O)N2[C@@H]1SC(C)(C)[C@@H]2C(=O)O` [Nafcillin], the MIC50 in experiment [1] (setting [3]) is no more than 1 µg/mL; in experiment [2] (setting [5]), 64 µg/mL (≈ 154 µM). For the same compound, the MIC90 in experiment [1] (setting [4]) amounted to 16 µg/mL (≈ 38.6 µM); in experiment [2] (setting [6]), 256 µg/mL (≈ 618 µM).

As to `CC1COc2c(N3CCN(C)CC3)c(F)cc3c(=O)c(C(=O)O)cn1c23` (stereo not drawn) [Ofloxacin], the MIC50 in experiment [1] (setting [3]) and in experiment [2] (setting [5]) was 0.5 µg/mL (≈ 1.38 µM) in each case. The MIC90 in experiment [1] (setting [4]) and in experiment [2] (setting [6]) was 32 µg/mL (≈ 88.6 µM) each time.

On to `Cc1onc(-c2ccccc2)c1C(=O)N[C@@H]1C(=O)N2[C@@H]1SC(C)(C)[C@@H]2C(=O)O` [Oxacillin], for which the MIC50 in experiment [1] (setting [3]) was no more than 1 µg/mL; in experiment [2] (setting [5]), 128 µg/mL (≈ 319 µM). The MIC90 in experiment [1] (setting [4]) was 64 µg/mL (≈ 159 µM); in experiment [2] (setting [6]) it was 512 µg/mL (≈ 1280 µM).

On to `CO[C@H]1/C=C/O[C@@]2(C)Oc3c(C)c(O)c4c(O)c(c(/C=N/N5CCN(C)CC5)c(O)c4c3C2=O)NC(=O)/C(C)=C\C=C\[C@H](C)[C@H](O)[C@@H](C)[C@@H](O)[C@@H](C)[C@H](OC(C)=O)[C@@H]1C` [Rifampicin], for which the MIC50 in experiment [1] (setting [3]) and in experiment [2] (setting [5]) was no more than 0.0625 µg/mL throughout. Further, the figures for the MIC90 in experiment [1] (setting [4]) and in experiment [2] (setting [6]) were no more than 0.0625 µg/mL and greater than 32 µg/mL, respectively.

In the case of `CN(C)[C@@H]1C(O)=C(C(N)=O)C(=O)[C@@]2(O)C(O)=C3C(=O)c4c(O)cccc4[C@@](C)(O)[C@H]3C[C@@H]12` [Tetracycline], the MIC50 in experiment [1] (setting [3]) and in experiment [2] (setting [5]) was 0.25 µg/mL (≈ 0.563 µM) each time. Besides, the MIC90 was 32 µg/mL (≈ 72 µM) in experiment [1] (setting [4]) and greater than 32 µg/mL in experiment [2] (setting [6]).

For `CN[C@H](CC(C)C)C(=O)N[C@H]1C(=O)N[C@@H](CC(N)=O)C(=O)N[C@H]2C(=O)N[C@H]3C(=O)N[C@H](C(=O)N[C@H](C(=O)O)c4cc(O)cc(O)c4-c4cc3ccc4O)[C@H](O)c3ccc(c(Cl)c3)Oc3cc2cc(c3O[C@@H]2O[C@H](CO)[C@@H](O)[C@H](O)[C@H]2O[C@H]2C[C@](C)(N)[C@H](O)[C@H](C)O2)Oc2ccc(cc2Cl)[C@H]1O` [Vancomycin], in experiment [1] (Staphylococcus aureus, MSSA), the MIC50 was found to be 0.5 µg/mL (≈ 0.345 µM) and the MIC90 came out at 1 µg/mL (≈ 0.69 µM). In experiment [2] (Staphylococcus aureus, MRSA), the MIC50 is 0.5 µg/mL (≈ 0.345 µM) and the MIC90 came to 1 µg/mL (≈ 0.69 µM).

With Gentamicin, the MIC50 in experiment [1] (MSSA (19 strains)) was 0.5 µg/mL; in experiment [2] (MRSA (64 strains)), 1 µg/mL. In addition, the MIC90 in experiment [1] (MSSA (19 strains)) is 32 µg/mL; in experiment [2] (MRSA (64 strains)), greater than 32 µg/mL.
